Reference: patent US4202802A, “Peptides related to somatostatin” (Eli Lilly and Company, priority 1978, dated 1980)
Where “and” joins values, the source holds several entries; their conditions need not be identical. Equal entries are not always repeated. Bridge positions count the residues as written; N and C are the ends. Square brackets hold non-standard residues; d marks the D form. Peptide text beside a SMILES is read from it.

What was measured:
[1] = system: growth hormone (GH) secretion; assay: Growth Hormone Inhibition In Rats (pentobarbital-stimulated GH secretion, serum GH by radioimmunoassay); assay type: in vivo; conditions: male rats, peptide S.C.; for Serum Growth Hormone Conc. Mean ± SEM: pentobarbital 4 mg/rat I.P.
Method: This test is a modification of the method of P. Brazeau et al. Endocrinology, 94, 184 (1974). Male rats (weighing 100-110 g.) are divided into three groups of eight rats each. Each rat is administered sodium pentobarbital at a dose of 4 mg/rat (I.P.) to stimulate growth hormone (GH) secretion. Simultaneously, one group of rats receives the test compound (S.C.); the second group receives somatostatin (S.C.); and the third group (control) receives saline (S.C.). Twenty-minutes later, the animals are decapitated and blood samples are collected. The serum concentration of growth hormone (GH) is determined by radioimmunoassay. The mean GH concentration (±standard error of the mean) is calculated for each group. The percent inhibition of GH release (as compared to saline controls) is then calculated for the test compound and for somatostatin. When tested as above-described, the peptides of Example 4, 7, 10, and 14, representative of the peptides of Formula III, gave the results set forth below in Table I: […]

serum insulin = assay: Insulin Inhibition In Dogs (I.V. infusion of test compound with L-alanine infusion, serum insulin by radioimmunoassay); assay type: in vivo, dog; conditions: for inhibition of insulin concentration: fasted dog, I.V. infusion, doses: Example 4 0.147, Example 7 0.182, Example 10 0.247 μg/kg/min, Example 14 0.092, 0.126, 0.128, 0.198 μg/kg/min and 0.305 mg/kg/min
Method: (§1) A normal dog is fasted overnight. An intravenous (I.V.) infusion of the test compound (dissolved in saline) is begun. Thirty minutes thereafter an additional infusion of L-alanine (dissolved in saline) is begun and is continued for a total of 15 minutes so that a total dose of about 1 mmole of L-alanine per kg. body weight is given. Infusion of the test compound is continued for an additional 15 minute period.
(§2) Blood samples are taken periodically before (at -20, -10 and -1 minutes) and after (5, 10, 15, 30, 35, 40, 45, 50, 60, 90, 120 and 150 minutes) the start of the infusion of the test compound. The serum insulin and serum glucagon concentrations in the blood are determined by radioimmunoassay. A plot is made of the glucagon and insulin concentrations versus time. The plot obtained from the test compound is compared to plots obtained from somatostatin and saline (controls) in similar experiments.
(§3) Infusion of L-alanine (in the absence of somatostatin or active test compound) causes an abrupt increase in serum insulin and glucagon concentrations. The concentrations return to basal levels after the L-alanine infusion is terminated. Infusion of somalostatin (alone) causes a decrease in basal serum concentrations of insulin and glucagon.

serum glucagon = assay: Glucagon Inhibition In Dogs (I.V. infusion of test compound with L-alanine infusion, serum glucagon by radioimmunoassay); assay type: in vivo, dog; conditions: for inhibition of glucagon concentration: fasted dog, I.V. infusion, doses: Example 4 0.147, Example 7 0.182, Example 10 0.247 μg/kg/min, Example 14 0.092, 0.126, 0.128, 0.198 μg/kg/min and 0.305 mg/kg/min
Method: as §1, §2, §3

[2] = Dose (mg/kg) 2, 20 min after dosing
[3] = Dose (mg/kg) 50, 20 min after dosing
[4] = dog, in the presence of L-alanine
[5] = dog, infusion alone (no L-alanine)

| Compound | Serum Growth Hormone Conc. Mean ± SEM [1, 2] [ng/mL] | Serum Growth Hormone Conc. Mean ± SEM [1, 3] [ng/mL] | % Inhibition of GH release (as compared to saline controls) ([1]; Dose (mg/kg) 2) [%] | % Inhibition of GH release (as compared to saline controls) ([1]; Dose (mg/kg) 50) | inhibition of insulin concentration (serum insulin) | inhibition of glucagon concentration (serum glucagon) | effect on the increase in insulin concentration induced by L-alanine (serum insulin; [4]) | effect on basal serum concentration of insulin (serum insulin; [5]) | effect on the increase in glucagon concentration induced by L-alanine (serum glucagon; [4]) | effect on basal serum concentration of glucagon (serum glucagon; [5]) |
| --- | --- | --- | --- | --- | --- | --- | --- | --- | --- | --- |
| CC(C)C[C@@H]1NC(=O)[C@H](C)NC(=O)[C@H](CCCCN)NC(=O)[C@@H](NC(=O)CNC(=O)[C@H](N)C(C)C)CSSC[C@@H](C(=O)O)NC(=O)[C@H](CO)NC(=O)[C@H]([C@@H](C)O)NC(=O)[C@@H](Cc2ccccc2)NC(=O)[C@H]([C@@H](C)O)NC(=O)[C@H](CCCCN)NC(=O)[C@@H](Cc2c[nH]c3ccccc23)NC(=O)[C@H](Cc2ccccc2)NC1=O [Example 10, D-Valyl-L-glycyl-L-cysteinyl-L-lysyl-L-alanyl-L-leucyl-L-phenylalanyl-D-tryptophyl-L-lysyl-L-threonyl-D-phenylalanyl-L-threonyl-L-seryl-L-cysteine cyclic (3->14) disulfide] (H-[dV]GCKALF[dW]KT[dF]TSC-OH; disulfide 3-14) | 82.8 ± 19.6 | 93.5 ± 22.6 | 37.3 | 29.3% | no significant inhibition | no significant inhibition |  |  |  |  |
| CC(C)[C@@H](N)C(=O)NCC(=O)N[C@H]1CSSC[C@@H](C(=O)O)NC(=O)[C@H](CO)NC(=O)[C@H]([C@@H](C)O)NC(=O)[C@@H](Cc2ccccc2)NC(=O)[C@H]([C@@H](C)O)NC(=O)[C@H](CCCCN)NC(=O)[C@@H](Cc2c[nH]c3ccccc23)NC(=O)[C@H](Cc2ccccc2)NC(=O)[C@@H](Cc2ccccc2)NC(=O)[C@H](C)NC(=O)[C@H](CCCCN)NC1=O [Example 4, D-Valyl-L-glycyl-L-cysteinyl-L-lysyl-L-alanyl-D-phenylalanyl-L-phenylalanyl-D-tryptophyl-L-lysyl-L-threonyl-D-phenyl-alanyl-L-threonyl-L-seryl-L-cysteine cyclic (3->14) disulfide] (H-[dV]GCKA[dF]F[dW]KT[dF]TSC-OH; disulfide 3-14) | 72.1 ± 27.3 | 31.9 ± 16.6 | 27.9 | 68.1% | no significant inhibition | no significant inhibition |  |  |  |  |
| C[C@H](N)C(=O)NCC(=O)N[C@H]1CSSC[C@@H](C(=O)O)NC(=O)[C@H](CO)NC(=O)[C@H]([C@@H](C)O)NC(=O)[C@H](Cc2ccccc2)NC(=O)[C@H]([C@@H](C)O)NC(=O)[C@H](CCCCN)NC(=O)[C@H](Cc2c[nH]c3ccccc23)NC(=O)[C@H](Cc2ccccc2)NC(=O)[C@H](Cc2ccccc2)NC(=O)[C@H](CC(N)=O)NC(=O)[C@H](CCCCN)NC1=O [Somatostatin] |  |  | 0 | 86.6% and 84.9% and 89.7% and 93% |  |  | inhibits the increase | decrease | inhibits the increase | decrease |
| C[C@H](N)C(=O)N[C@H](C)C(=O)N[C@H]1CSSC[C@@H](C(=O)O)NC(=O)[C@H](CO)NC(=O)[C@H]([C@@H](C)O)NC(=O)[C@@H](Cc2ccccc2)NC(=O)[C@H]([C@@H](C)O)NC(=O)[C@H](CCCCN)NC(=O)[C@@H](Cc2c[nH]c3ccccc23)NC(=O)[C@H](Cc2ccccc2)NC(=O)[C@H](Cc2ccccc2)NC(=O)[C@H](C)NC(=O)[C@H](CCCCN)NC1=O [Example 14, L-Alanyl-D-alanyl-L-cysteinyl-L-lysyl-L-alanyl-L-phenylalanyl-L-phenylalanyl-D-tryptophyl-L-lysyl-L-threonyl-D-phenylalanyl-L-threonyl-L-seryl-L-cysteine cyclic (3->14) disulfide] (H-A[dA]CKAFF[dW]KT[dF]TSC-OH; disulfide 3-14) | 132 ± 69.4 | 77.8 ± 19.6 | 20 | 53% | no significant inhibition | no significant inhibition |  |  |  |  |
| CC(C)[C@@H](N)C(=O)NCC(=O)N[C@H]1CSSC[C@@H](C(=O)O)NC(=O)[C@H](CO)NC(=O)[C@H]([C@@H](C)O)NC(=O)[C@@H](Cc2ccccc2)NC(=O)[C@H]([C@@H](C)O)NC(=O)[C@H](CCCCN)NC(=O)[C@@H](Cc2c[nH]c3ccccc23)NC(=O)[C@H](Cc2ccccc2)NC(=O)[C@H](Cc2ccccc2)NC(=O)[C@H](C)NC(=O)[C@H](CCCCN)NC1=O [Example 7, D-Valyl-L-glycyl-L-cysteinyl-L-lysyl-L-alanyl-L-phenylalanyl-L-phenylalanyl-D-tryptophyl-L-lysyl-L-threonyl-D-phenyl-alanyl-L-threonyl-L-seryl-L-cysteine cyclic (3->14) disulfide] (H-[dV]GCKAFF[dW]KT[dF]TSC-OH; disulfide 3-14) | 94.7 ± 22 | 38.7 | 45.9 | 77.5% | no significant inhibition | no significant inhibition |  |  |  |  |
